From patent US10787452B2 (Vertex Pharmaceuticals Incorporated, priority 2012, dated 2020) come the findings set out here.

In this experiment the test system is HCT116 colorectal cancer cells. The experiment is described as follows: Cisplatin sensitization assay (96 h cell viability MTS).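 Further: compound concentration needed to lower the Cisplatin-alone IC50 by a set fold.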 The format is cell-based. Conditions: 96 h MTS, compound plus Cisplatin. The procedure, abridged:
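Viability is measured with MTS reagent, added after 96 h and developed for 1 h at 37° C. Beforehand, cells receive compound and cisplatin simultaneously in a concentration matrix of 2-fold serial dilutions starting at 10 μM final.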
In the case of `Nc1nn2cc(F)cnc2c1C(=O)Nc1cnccc1N1CCC(S(=O)(=O)C2COC2)CC1` [I-N-200, 2-amino-6-fluoro-N-(4-(4-(oxetan-3-ylsulfonyl)piperidin-1-yl)pyridin-3-yl)pyrazolo[1,5-a]pyrimidine-3-carboxamide], the “Cisplatin Sensitization Assay” value is “+++ (Compounds with a Cisplatin sensitization value of <0.02 μM are marked with “+++.”)”.
The value for `Nc1nn2cc(F)cnc2c1C(=O)Nc1cncc(F)c1N1CCN(S(=O)(=O)C2COC2)CC1` [I-N-201] was “+++ (Compounds with a Cisplatin sensitization value of <0.02 μM are marked with “+++.”)”; that for `Nc1nn2cc(F)cnc2c1C(=O)Nc1cnccc1-n1ccnc1C1CC1` [I-N-202, 2-amino-N-(4-(2-cyclopropyl-1H-imidazol-1-yl)pyridin-3-yl)-6-fluoropyrazolo[1,5-a]pyrimidine-3-carboxamide] was “+++ (Compounds with a Cisplatin sensitization value of <0.02 μM are marked with “+++.”)”; that for `Nc1nn2cc(F)cnc2c1C(=O)Nc1cncc(F)c1N1CCN(C(=O)C2CC3CCCCN3C2)CC1` (stereo not shown) [I-N-203, 2-amino-6-fluoro-N-(5-fluoro-4-(4-(octahydroindolizine-2-carbonyl)piperazin-1-yl)pyridin-3-yl)pyrazolo[1,5-a]pyrimidine-3-carboxamide] was “+++ (Compounds with a Cisplatin sensitization value of <0.02 μM are marked with “+++.”)”.
Next, `CC(C)N1CCCC1C(=O)N1CCN(c2c(F)cncc2NC(=O)c2c(N)nn3cc(F)cnc23)CC1` (stereo not shown) [I-N-205, 2-amino-6-fluoro-N-(5-fluoro-4-(4-(1-isopropylpyrrolidine-2-carbonyl)piperazin-1-yl)pyridin-3-yl)pyrazolo[1,5-a]pyrimidine-3-carboxamide]: “++ (Compounds with a Cisplatin sensitization value >0.02 μM but <0.2 μM are marked with “++.”)”; `CC(C)N1CCC(C(=O)N2CCN(c3c(F)cncc3NC(=O)c3c(N)nn4cc(F)cnc34)CC2)C1` (stereo not shown) [I-N-206, 2-amino-6-fluoro-N-(5-fluoro-4-(4-(1-isopropylpyrrolidine-3-carbonyl)piperazin-1-yl)pyridin-3-yl)pyrazolo[1,5-a]pyrimidine-3-carboxamide]: “+++ (Compounds with a Cisplatin sensitization value of <0.02 μM are marked with “+++.”)”.
The value for `COCCS(=O)(=O)C1CCN(c2ccncc2NC(=O)c2c(N)nn3cc(F)cnc23)CC1` [I-N-208, 2-amino-6-fluoro-N-(4-(4-((2-methoxyethyl)sulfonyl)piperidin-1-yl)pyridin-3-yl)pyrazolo[1,5-a]pyrimidine-3-carboxamide] was “+++ (Compounds with a Cisplatin sensitization value of <0.02 μM are marked with “+++.”)”; that for `CN1CCN(c2ccncc2NC(=O)c2c(N)nn3cc(F)cnc23)CC1=O` [I-N-209, 2-amino-6-fluoro-N-(4-(4-methyl-3-oxopiperazin-1-yl)pyridin-3-yl)pyrazolo[1,5-a]pyrimidine-3-carboxamide] was “+++ (Compounds with a Cisplatin sensitization value of <0.02 μM are marked with “+++.”)”.
Take `Nc1nn2cc(F)cnc2c1C(=O)Nc1cnccc1N1CCS(=O)(=O)CC1` [I-N-210, 2-amino-N-(4-(1,1-dioxidothiomorpholino)pyridin-3-yl)-6-fluoropyrazolo[1,5-a]pyrimidine-3-carboxamide]: the “Cisplatin Sensitization Assay” value was “+++ (Compounds with a Cisplatin sensitization value of <0.02 μM are marked with “+++.”)”.
As for `Nc1nn2cc(F)cnc2c1C(=O)Nc1cncc(F)c1N1CCN(C(=O)C2CCN(C3COC3)CC2)CC1` [I-N-211, 2-amino-6-fluoro-N-(5-fluoro-4-(4-(1-(oxetan-3-yl)piperidine-4-carbonyl)piperazin-1-yl)pyridin-3-yl)pyrazolo[1,5-a]pyrimidine-3-carboxamide], the “Cisplatin Sensitization Assay” value is reported as “++ (Compounds with a Cisplatin sensitization value >0.02 μM but <0.2 μM are marked with “++.”)”.
Next, `CN1CCN(c2c(F)cncc2NC(=O)c2c(N)nn3cc(F)cnc23)CC1=O` [I-N-212, 2-amino-6-fluoro-N-(5-fluoro-4-(4-methyl-3-oxopiperazin-1-yl)pyridin-3-yl)pyrazolo[1,5-a]pyrimidine-3-carboxamide]: “+++ (Compounds with a Cisplatin sensitization value of <0.02 μM are marked with “+++.”)”; `Nc1nn2cc(F)cnc2c1C(=O)Nc1cncc(F)c1N1CCC(CN2CCCC2=O)CC1` [I-N-213, 2-amino-6-fluoro-N-(5-fluoro-4-(4-((2-oxopyrrolidin-1-yl)methyl)piperidin-1-yl)pyridin-3-yl)pyrazolo[1,5-a]pyrimidine-3-carboxamide]: “+++ (Compounds with a Cisplatin sensitization value of <0.02 μM are marked with “+++.”)”; `CN1CCCCC1C(=O)N1CCN(c2c(F)cncc2NC(=O)c2c(N)nn3cc(F)cnc23)CC1` (stereo not shown) [I-N-214, 2-amino-6-fluoro-N-(5-fluoro-4-(4-(1-methylpiperidine-2-carbonyl)piperazin-1-yl)pyridin-3-yl)pyrazolo[1,5-a]pyrimidine-3-carboxamide]: “++ (Compounds with a Cisplatin sensitization value >0.02 μM but <0.2 μM are marked with “++.”)”.
Next, `CS(=O)(=O)CC1CCN(c2ccncc2NC(=O)c2c(N)nn3cc(F)cnc23)CC1` [I-N-215, 2-amino-6-fluoro-N-(4-(4-((methylsulfonyl)methyl)piperidin-1-yl)pyridin-3-yl)pyrazolo[1,5-a]pyrimidine-3-carboxamide]: “+++ (Compounds with a Cisplatin sensitization value of <0.02 μM are marked with “+++.”)”; `CN1CC2(CCN(c3ccncc3NC(=O)c3c(N)nn4cc(F)cnc34)CC2)OC1=O` [I-N-216, 2-amino-6-fluoro-N-(4-(3-methyl-2-oxo-1-oxa-3,8-diazaspiro[4.5]decan-8-yl)pyridin-3-yl)pyrazolo[1,5-a]pyrimidine-3-carboxamide]: “+++ (Compounds with a Cisplatin sensitization value of <0.02 μM are marked with “+++.”)”.
Next, `Nc1nn2cc(F)cnc2c1C(=O)Nc1cnccc1N1CCN2C(=O)CC[C@H]2C1` [I-N-217, (S)-2-amino-6-fluoro-N-(4-(6-oxohexahydropyrrolo[1,2-a]pyrazin-2(1H)-yl)pyridin-3-yl)pyrazolo[1,5-a]pyrimidine-3-carboxamide]: “++ (Compounds with a Cisplatin sensitization value >0.02 μM but <0.2 μM are marked with “++.”)”; `Cc1nc(C)n(-c2ccncc2NC(=O)c2c(N)nn3cc(F)cnc23)n1` [I-N-218, 2-amino-N-(4-(3,5-dimethyl-1H-1,2,4-triazol-1-yl)pyridin-3-yl)-6-fluoropyrazolo[1,5-a]pyrimidine-3-carboxamide]: “+ (Compounds with a Cisplatin sensitization value >0.2 μM but <5 μM are marked with “+.”)”.
Regarding `Nc1nn2cc(F)cnc2c1C(=O)Nc1cnccc1-n1ccnc1C(F)(F)F` [I-N-219, 2-amino-6-fluoro-N-(4-(2-(trifluoromethyl)-1H-imidazol-1-yl)pyridin-3-yl)pyrazolo[1,5-a]pyrimidine-3-carboxamide], the “Cisplatin Sensitization Assay” value is recorded as “+++ (Compounds with a Cisplatin sensitization value of <0.02 μM are marked with “+++.”)”.
With `CC1(C)CCCN1c1ccncc1NC(=O)c1c(N)nn2cc(F)cnc12` [I-N-220, 2-amino-N-(4-(2,2-dimethylpyrrolidin-1-yl)pyridin-3-yl)-6-fluoropyrazolo[1,5-a]pyrimidine-3-carboxamide], the “Cisplatin Sensitization Assay” value is “++ (Compounds with a Cisplatin sensitization value >0.02 μM but <0.2 μM are marked with “++.”)”.
The value for `CS(=O)(=O)C1CCCN(c2ccncc2NC(=O)c2c(N)nn3cc(F)cnc23)C1` (stereo not shown) [I-N-221, 2-amino-6-fluoro-N-(4-(3-(methylsulfonyl)piperidin-1-yl)pyridin-3-yl)pyrazolo[1,5-a]pyrimidine-3-carboxamide] was “++ (Compounds with a Cisplatin sensitization value >0.02 μM but <0.2 μM are marked with “++.”)”; that for `Nc1nn2cc(F)cnc2c1C(=O)Nc1cnccc1N1CC(=O)N2CCCC2C1` (stereo not shown) [I-N-222, 2-amino-6-fluoro-N-(4-(4-oxohexahydropyrrolo[1,2-a]pyrazin-2(1H)-yl)pyridin-3-yl)pyrazolo[1,5-a]pyrimidine-3-carboxamide] was “++ (Compounds with a Cisplatin sensitization value >0.02 μM but <0.2 μM are marked with “++.”)”; that for `Cc1ccnn1-c1ccncc1NC(=O)c1c(N)nn2cc(F)cnc12` [I-N-223, 2-amino-6-fluoro-N-(4-(5-methyl-1H-pyrazol-1-yl)pyridin-3-yl)pyrazolo[1,5-a]pyrimidine-3-carboxamide] was “++ (Compounds with a Cisplatin sensitization value >0.02 μM but <0.2 μM are marked with “++.”)”.
The value for `CN1C[C@@H]2CCN(c3ccncc3NC(=O)c3c(N)nn4cc(F)cnc34)C[C@@H]2C1=O` [I-N-224, 2-amino-6-fluoro-N-(4-((3aR,7aR)-2-methyl-3-oxohexahydro-1H-pyrrolo[3,4-c]pyridin-5(6H)-yl)pyridin-3-yl)pyrazolo[1,5-a]pyrimidine-3-carboxamide] was “+ (Compounds with a Cisplatin sensitization value >0.2 μM but <5 μM are marked with “+.”)”; that for `Cc1ccn(-c2ccncc2NC(=O)c2c(N)nn3cc(F)cnc23)n1` [I-N-225, 2-amino-6-fluoro-N-(4-(3-methyl-1H-pyrazol-1-yl)pyridin-3-yl)pyrazolo[1,5-a]pyrimidine-3-carboxamide] was “++ (Compounds with a Cisplatin sensitization value >0.02 μM but <0.2 μM are marked with “++.”)”.
Next, `Nc1nn2cc(F)cnc2c1C(=O)Nc1cnccc1N1CCC2(CC1)COC2` [I-N-226, N-(4-(2-oxa-7-azaspiro[3.5]nonan-7-yl)pyridin-3-yl)-2-amino-6-fluoropyrazolo[1,5-a]pyrimidine-3-carboxamide]: “+++ (Compounds with a Cisplatin sensitization value of <0.02 μM are marked with “+++.”)”.
